Measurements: patent publication US20240336654A1, “ANTIMICROBIAL PEPTIDOMIMETICS” (SPEXIS AG, priority 2021, published 2024)
Read-outs that look alike come from different tables or passages of the source. Where a SMILES comes first, the peptide text is derived from it. Bridges are numbered along the chain shown (N, C = ends). Where no end group is shown, it is not given here. [ ]: non-standard residue; d: D form. The star is where a group is joined. Val(Nα-amidino) = CC(C)[C@H](NC(=N)N)C(=O)*; Gly(cPent) = N[C@H](C(=O)O)C1CCCC1; Hyp = O=C(O)[C@@H]1C[C@@H](O)CN1; Pen = CC(C)(S)[C@H](N)C(=O)O; dDab = NCC[C@@H](N)C(=O)O; Orn = NCCC[C@H](N)C(=O)O; Dab = NCC[C@H](N)C(=O)O

Columns and labels:
Format in all cases: cell-based
[1] = system: Escherichia coli ATCC 25922
In short: (§1)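 The MIC is the lowest peptide concentration, in μg/mL, with no visible growth after 18-20 h incubation at 35 °C. Serial two-fold peptide dilutions in water with 0.002% P-80 final were added to bacteria in cation-adjusted MHII broth, about 5×10^5 CFU/mL, following modified CLSI microdilution.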

[2] = system: Escherichia coli MCR-1 Af 45
In short: as §1

[3] = system: Klebsiella pneumoniae SSI3010
In short: as §1

[4] = system: human red blood cells (hRBC)
In short: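 Peptides at 200 μg/mL incubated 1 h at 37 °C with 20% (v/v) washed human RBC, shaking. Hemolysis from supernatant OD540, expressed as percent of 2.5% Triton X-100 lysis, with PBS as 0%.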

[5] = red cells of human, 1 h, 200 μg/mL
[6] = Mueller-Hinton broth II, no visible growth after 18-20 hours at 35° C.

Compound | Escherichia coli ATCC 25922 MIC ([1]; ATCC 25922) [µg/mL] | Escherichia coli MCR-1 Af45 MIC ([2]; MCR-1 Af 45) [µg/mL] | Klebsiella pneumoniae SSI3010 MIC ([3]; SSI3010) [µg/mL] | Escherichia coli ATCC 25922 MIC [1, 6] [µg/mL] | Escherichia coli MCR-1 Af45 MIC [2, 6] [µg/mL] | Klebsiella pneumoniae SSI3010 MIC [3, 6] [µg/mL] | Hemolysis at 0.2 g/L [4, 5] [%] | Hemolysis at 0.2 g/L [4] [%]
CC[C@H](C)[C@H](NC(=O)[C@@H]1C[C@@H](O)CN1C(=O)[C@@H](NC(=N)N)C(C)C)C(=O)N[C@@H]1C(=O)N[C@@H](Cc2ccc(O)cc2)C(=O)N[C@@H]([C@@H](C)O)C(=O)N[C@@H](CC(N)=O)C(=O)N[C@@H](CCCNC(=N)N)C(=O)N[C@@H](CCN)C(=O)N[C@@H]([C@@H](C)O)C(=O)N[C@H](CCN)C(=O)N[C@@H](CCN)C(=O)N[C@@H](CCN)C(=O)N[C@@H]([C@@H](C)O)C(=O)N[C@H](C(=O)N[C@@H](Cc2ccc(O)cc2)C(=O)O)CSSC1(C)C [Example 132, Gua-Val-Hyp-Ile-Pen-Tyr-Thr-Asn-Arg-Dab-Thr-^DDab-Dab-Dab-Thr-Cys-Tyr] ({Val(Nα-amidino)}-[Hyp]I[Pen]YTNR[Dab]T[dDab][Dab][Dab]TCY-OH; disulfide 3-14) | 0.25 | 0.125 | 0.25 | – | – | – | <1 | –
CC[C@H](C)[C@H](NC(=O)[C@@H]1C[C@@H](O)CN1C(=O)[C@@H](NC(=N)N)C(C)C)C(=O)N[C@@H]1C(=O)N[C@@H](Cc2ccc(O)cc2)C(=O)N[C@@H]([C@@H](C)O)C(=O)N[C@@H](CC(N)=O)C(=O)N[C@@H](CCCNC(=N)N)C(=O)N[C@@H](CCN)C(=O)N[C@@H]([C@@H](C)O)C(=O)N[C@H](CCN)C(=O)N[C@@H](CCCN)C(=O)N[C@@H](CCN)C(=O)N[C@@H]([C@@H](C)O)C(=O)N[C@H](C(=O)N[C@@H](Cc2ccc(O)cc2)C(=O)O)CSSC1(C)C [Example 133, Gua-Val-Hyp-Ile-Pen-Tyr-Thr-Asn-Arg-Dab-Thr-^DDab-Orn-Dab-Thr-Cys-Tyr] ({Val(Nα-amidino)}-[Hyp]I[Pen]YTNR[Dab]T[dDab][Orn][Dab]TCY-OH; disulfide 3-14) | 0.25 | 0.125 | 0.25 | – | – | – | <1 | –
CC(C)[C@H](NC(=N)N)C(=O)N1C[C@H](O)C[C@H]1C(=O)N[C@H](C(=O)N[C@@H]1C(=O)N[C@@H](Cc2ccc(O)cc2)C(=O)N[C@@H]([C@@H](C)O)C(=O)N[C@@H](CC(N)=O)C(=O)N[C@@H](CCCNC(=N)N)C(=O)N[C@@H](CCN)C(=O)N[C@@H]([C@@H](C)O)C(=O)N[C@H](CCN)C(=O)N[C@@H](CO)C(=O)N[C@@H](CCN)C(=O)N[C@@H](CCN)C(=O)N[C@H](C(=O)N[C@@H](Cc2ccc(O)cc2)C(=O)O)CSSC1(C)C)C1CCCC1 [Example 134, Gua-Val-Hyp-Cpg-Pen-Tyr-Thr-Asn-Arg-Dab-Thr-^DDab-Ser-Dab-Dab-Cys-Tyr] ({Val(Nα-amidino)}-[Hyp][Gly(cPent)][Pen]YTNR[Dab]T[dDab]S[Dab][Dab]CY-OH; disulfide 3-14) | 0.125 | 0.125 | 0.25 | – | – | – | <1 | –
CC[C@H](C)[C@H](NC(=O)[C@@H]1C[C@@H](O)CN1C(=O)[C@@H](NC(=N)N)C(C)C)C(=O)N[C@H]1CCNC(=O)CC[C@@H](C(=O)N[C@@H](Cc2ccc(O)cc2)C(=O)O)NC(=O)[C@H](CCN)NC(=O)[C@H](CCN)NC(=O)[C@H](CCN)NC(=O)[C@@H](CCN)NC(=O)[C@H]([C@@H](C)O)NC(=O)[C@H](CCN)NC(=O)[C@H](CCCNC(=N)N)NC(=O)[C@H](CC(N)=O)NC(=O)[C@H]([C@@H](C)O)NC(=O)[C@H](Cc2ccc(O)cc2)NC1=O [Example 135, Gua-Val-Hyp-Ile-Dab-Tyr-Thr-Asn-Arg-Dab-Thr-^DDab-Dab-Dab-Dab-Glu-Tyr] ({Val(Nα-amidino)}-[Hyp]I[Dab]YTNR[Dab]T[dDab][Dab][Dab][Dab]EY-OH; lactam 3-14) | 0.125 | 0.0625 | 0.125 | – | – | – | <1 | –

The next lines start with results.

Escherichia coli ATCC 25922 MIC ([1]; ATCC 25922) [µg/mL] | Escherichia coli MCR-1 Af45 MIC ([2]; MCR-1 Af 45) [µg/mL] | Klebsiella pneumoniae SSI3010 MIC ([3]; SSI3010) [µg/mL] | Escherichia coli ATCC 25922 MIC [1, 6] [µg/mL] | Escherichia coli MCR-1 Af45 MIC [2, 6] [µg/mL] | Klebsiella pneumoniae SSI3010 MIC [3, 6] [µg/mL] | Compound | Hemolysis at 0.2 g/L [4, 5] [%] | Hemolysis at 0.2 g/L [4] [%]
0.125 | 0.125 | 0.5 | – | – | – | CC[C@H](C)[C@H](NC(=O)[C@@H]1C[C@@H](O)CN1C(=O)[C@@H](NC(=N)N)C(C)C)C(=O)N[C@H]1CCNC(=O)CC[C@@H](C(=O)N[C@@H](Cc2ccc(O)cc2)C(=O)O)NC(=O)[C@H](CCN)NC(=O)[C@H](CCN)NC(=O)[C@H](C(C)C)NC(=O)[C@@H](CCN)NC(=O)[C@H]([C@@H](C)O)NC(=O)[C@H](CCN)NC(=O)[C@H](CCCNC(=N)N)NC(=O)[C@H](CC(N)=O)NC(=O)[C@H]([C@@H](C)O)NC(=O)[C@H](Cc2ccc(O)cc2)NC1=O [Example 136, Gua-Val-Hyp-Ile-Dab-Tyr-Thr-Asn-Arg-Dab-Thr-^DDab-Val-Dab-Dab-Glu-Tyr] ({Val(Nα-amidino)}-[Hyp]I[Dab]YTNR[Dab]T[dDab]V[Dab][Dab]EY-OH; lactam 3-14) | <1 | –
– | – | – | 0.25 | 0.25 | 0.5 | Val-Hyp-Ile-Pen-Tyr-Ser-Asn-Arg-Dab-Thr-^DDab-Lys-Dab-Ser-Cys-Tyr (V[Hyp]I[Pen]YSNR[Dab]T[dDab]K[Dab]SCY; disulfide 4-15) [Example 57] | – | <1
